According to patent US11673910B2, “Macrolides with modified desosamine sugars and uses thereof” (Zikani Therapeutics, Inc., priority 2017, dated 2023):
≈ marks a conversion by molar mass, not a printed value.

Assays:
Type in all cases: cell-based
[1] = test system: K. pneumoniae strain MP-548; experiment: Broth dilution MIC determination (CLSI) against K. pneumoniae strain MP-548; details: Klebsiella pneumoniae, MP548
Description: (§1) Minimum inhibitory concentrations (MICs) for macrolides described herein were determined for E. coli strain MP-4, K. pneumoniae strain MP-548, P. aeruginosa strain MP-3, A. baumannii strain MP-15, and S. aureus strain MP-12 using similar test procedures as published in US Pat. Pub. No. 2017/0305953. MIC data is represented as “+++” for values less than or equal to 4 mg/L, “++” for values of greater than or equal to 8 mg/L and less than 32 mg/L, and “+” for values of 32 mg/L or greater. ND indicates no data for a particular compound. CLSI standard procedures for broth dilution MIC determination were used.

[2] = test system: P. aeruginosa strain MP-3; experiment: Broth dilution MIC determination (CLSI) against P. aeruginosa strain MP-3; details: Pseudomonas aeruginosa, MP3
Description: as §1

[3] = test system: S. aureus strain MP-12; experiment: Broth dilution MIC determination (CLSI) against S. aureus strain MP-12; details: Staphylococcus aureus, MP12, strain MP-12
Description: as §1

[4] = test system: E. coli strain MP-4; experiment: Broth dilution MIC determination (CLSI) against E. coli strain MP-4; details: Escherichia coli, MP4
Description: as §1

[5] = test system: A. baumannii strain MP-15; experiment: Broth dilution MIC determination (CLSI) against A. baumannii strain MP-15; details: Acinetobacter baumannii, MP15
Description: as §1

Structure (SMILES) | MIC [1] [µg/mL] | MIC [2] [µg/mL] | MIC [3] [µg/mL] | MIC [4] [µg/mL] | MIC [5] [µg/mL]
CC[C@H]1OC(=O)C(C)C(=O)[C@H](C)[C@@H](OC2OC(CN3CCCCCC3)CC(N(C)C)C2O)[C@](C)(OC)C[C@@H](C)CN[C@H](C)[C@H]2NC(=O)O[C@@]21C (stereo partly shown) [Compound 124, 3-Desdadinosyl-3-oxo-6-O-methyl-N9a-desmethyl-11,12-dideoxy-12,11-(oxycarbonylimino)-6′-(1-azepanyl) Azithromycin] | 8 to 32 (≈ 11.3 to 45 µM) | ≥ 32 | ≥ 32 | ≤ 4 | ≥ 32
CC[C@H]1OC(=O)[C@]2(C)CCO[C@](C)(C[C@@H](C)CN[C@H](C)[C@H]3NC(=O)O[C@@]31C)[C@H](O[C@@H]1O[C@H](CNCc3cccnc3)C[C@H](N(C)C)[C@H]1O)[C@@H](C)C2=O [Compound 200] | ≥ 32 | ≥ 32 | 8 to 32 (≈ 10.9 to 43.7 µM) | 8 to 32 (≈ 10.9 to 43.7 µM) | ≥ 32
CC[C@H]1OC(=O)C(C)C(=O)[C@H](C)[C@@H](OC2OC(CNCC(=O)N(C)C)CC(N(C)C)C2O)[C@](C)(OC)C[C@@H](C)CN[C@H](C)[C@H]2NC(=O)O[C@@]21C (stereo partly shown) [Compound 117, 3-Descladinosyl-3-oxo-6-O-methyl-N9a-desmethyl-11,12-dideoxy-12,11-(oxycarbonylimino)-6′-(N—(N,N-dimethylacetamidyl)-amino) Azithromycin] | ≥ 32 | ≥ 32 | ≥ 32 | ≥ 32 | ≥ 32
CC[C@H]1OC(=O)C(C)C(=O)[C@H](C)[C@@H](O[C@@H]2OC(CNCc3ccn(C)n3)CC(N(C)C)C2O)[C@](C)(OC)C[C@@H](C)CN[C@H](C)[C@H]2NC(=O)O[C@@]21C (stereo partly shown) [Compound 21] | ≥ 32 | ≥ 32 | ≥ 32 | ≥ 32 | ≥ 32
CC[C@H]1OC(=O)C(C)C(=O)[C@H](C)[C@@H](OC2OC(CN3CCCCC34CC4)CC(N(C)C)C2O)[C@](C)(OC)C[C@@H](C)CN[C@H](C)[C@H]2NC(=O)O[C@@]21C (stereo partly shown) [Compound 135, 3-Descladinosyl-3-oxo-6-O-methyl-N9a-desmethyl-11,12-dideoxy-12,11-(oxycarbonylimino)-6′-(4″-azaspiro[2″.5″]octanyl)amino Azithromycin] | 8 to 32 (≈ 11.1 to 44.3 µM) | ≥ 32 | 8 to 32 (≈ 11.1 to 44.3 µM) | ≤ 4 | ≤ 4
CC[C@H]1OC(=O)C(C)C(=O)[C@H](C)[C@@H](O[C@@H]2OC(CNCc3cccc(OC)c3)CC(N(C)C)C2O)[C@](C)(OC)C[C@@H](C)CN[C@H](C)[C@H]2NC(=O)O[C@@]21C (stereo partly shown) [Compound 43] | ≥ 32 | ≥ 32 | ≥ 32 | ≤ 4 | ≥ 32
CC[C@H]1OC(=O)C(C)C(=O)[C@H](C)[C@@H](O[C@@H]2O[C@H](CN(C)C(=O)CN(C)C)CC(N(C)C)[C@H]2O)[C@](C)(OC)C[C@@H](C)CN[C@H](C)[C@H]2NC(=O)O[C@@]21C (stereo partly shown) [Compound 171, 3-Descladinosyl-3-oxo-6-O-methyl-N9a-desmethyl-11,12-dideoxy-12,11-(oxycarbonylimino)-6′-N-methyl-2″-dimethylamino-acetamide Azithromycin] | ≥ 32 | ≥ 32 | ≥ 32 | ≤ 4 | ≥ 32
CC[C@H]1OC(=O)C(C)C(=O)[C@H](C)[C@@H](O[C@@H]2O[C@H]([C@H](C)N3CCCCC3)CC(N(C)C)[C@H]2O)[C@](C)(OC)C[C@@H](C)CN[C@H](C)[C@H]2NC(=O)O[C@@]21C (stereo partly drawn) [Compound 179, 3-Descladinosyl-3-oxo-6-O-methyl-N9a-desmethyl-11,12-dideoxy-12,11-(oxycarbonylimino)-6′-((S)-1-(piperidin-1-yl)ethyl) Azithromycin] | 8 to 32 (≈ 11.3 to 45 µM) | ≥ 32 | ≥ 32 | ≤ 4 | ≥ 32
CC[C@H]1OC(=O)[C@@](C)(F)C(=O)[C@H](C)[C@@H](O[C@@H]2OC(CNCc3ccc(-c4cncnc4)cc3)CC(N(C)C)C2O)[C@](C)(OC)C[C@@H](C)C(=O)[C@H](C)[C@H]2NC(=O)O[C@@]21C (stereo partly shown) [Compound 92] | ≥ 32 | ≥ 32 | ≤ 4 | ≥ 32 | ≥ 32
CC[C@H]1OC(=O)C(C)C(=O)[C@H](C)[C@@H](OC2OC(CN3CCN(C)CC3)CC(N(C)C)C2O)[C@](C)(OC)C[C@@H](C)CN[C@H](C)[C@H]2NC(=O)O[C@@]21C (stereo partly shown) [Compound 126, 3-Descladinosyl-3-oxo-6-O-methyl-N9a-desmethyl-11,12-dideoxy-12,11-(oxycarbonylimino)-6′-(1-(4-methyl)-piperazinyl) Azithromycin] | 8 to 32 (≈ 11.2 to 44.9 µM) | ≥ 32 | ≥ 32 | ≤ 4 | ≥ 32
CC[C@H]1OC(=O)[C@]2(C)CCO[C@](C)(C[C@@H](C)CN[C@H](C)[C@H]3NC(=O)O[C@@]31C)[C@H](O[C@@H]1O[C@H](CNCC3CC3)C[C@H](N(C)C)[C@H]1O)[C@@H](C)C2=O [Compound 196] | ≥ 32 | ≥ 32 | ≥ 32 | 8 to 32 (≈ 11.5 to 46 µM) | ≥ 32
